Results on five molecules are retold here after paper PMC3064895 (Cancer Chemotherapy and Pharmacology, 2010).

A short description of data set [1]: Plasma pharmacokinetics at steady state of sorafenib. It counts as in vivo, patients with advanced cancer. The note with it: for AUC, geometric mean (% CV): AUC(0–12), n = 14; for AUC, geometric mean (% CV) / AUCnorm, geometric mean (% CV) / C max, geometric mean (% CV) / C max,norm, geometric mean (% CV) / C trough, geometric mean (% CV) / C trough,norm, geometric mean (% CV) / t max, median (range): plasma, sorafenib 400 mg bid; for AUC ratio (90% CI) / C max ratio (90% CI) / C trough ratio (90% CI): ratio of day 1 of cycle 5 versus day 1 of cycle 2.

Data set [2] is described as follows: QT/QTc interval on 12-lead Holter ECG. It counts as in vivo, patients with advanced cancer. As to conditions: 2 h post-dose; oral 400-mg single dose, positive control, 1 day before cycle 1.
For data set [3] the following is noted: cited from earlier work.
The conditions of data set [4]: cited from earlier work; for Patients with declines to <50 LVEF(%): Hutson et al.; for Mean change in LVEF(%): study by Chu et al.

The structures appear in SMILES notation. Like-named read-outs stand apart in the source and are kept apart here.

In the case of `NC(=O)c1cc(Oc2ccc(NC(=O)Nc3ccc(Cl)c(C(F)(F)F)c3)cc2)ccn1` [BAY 43-9007], in data set [1] (Day 1 of cycle 2), the “AUC, geometric mean (% CV)” value is 2.0 (59.1) mg h/L; the “AUCnorm, geometric mean (% CV)” value is given as 0.4 (62.8) kg h/L; the “C max, geometric mean (% CV)” value is 0.2 (73.4) mg/L; the “C max,norm, geometric mean (% CV)” value is 0.1 (75.2) kg/L. For the same molecule, in data set [1] (Day 1 of cycle 2), the “C trough, geometric mean (% CV)” value is reported as 0.2 (82.3) mg/L; the “C trough,norm, geometric mean (% CV)” value is reported as <0.1 (85.0) kg/L; the “t max, median (range)” value is on record as 1.00 (0–12.00) h. In data set [1] (Day 1 of cycle 5), the “AUC, geometric mean (% CV)” value was 1.1 (74.0) mg h/L; the “AUCnorm, geometric mean (% CV)” value was 0.2 (80.9) kg h/L; the “C max, geometric mean (% CV)” value was 0.1 (75.5) mg/L; the “C max,norm, geometric mean (% CV)” value is listed as <0.1 (78.2) kg/L. In data set [1] (Day 1 of cycle 5), the “C trough, geometric mean (% CV)” value is reported as 0.1 (82.4) mg/L; the “C trough,norm, geometric mean (% CV)” value was <0.1 (84.8) kg/L; the “t max, median (range)” value is 2.00 (0–12.00) h. Also, in data set [1], the “AUC ratio (90% CI)” value was 0.57 (0.41–0.81), the “C max ratio (90% CI)” value is reported as 0.51 (0.38–0.68) and the “C trough ratio (90% CI)” value was 0.52 (0.38–0.70).
With `CNC(=O)c1cc(Oc2ccc(NC(=O)Nc3ccc(Cl)c(C(F)(F)F)c3)cc2)cc[n+]1[O-]` [BAY 67-3472], in data set [1] (Day 1 of cycle 2), the “AUC, geometric mean (% CV)” value was 8.5 (58.3) mg h/L; the “AUCnorm, geometric mean (% CV)” value is recorded as 1.4 (59.6) kg h/L; the “C max, geometric mean (% CV)” value is reported as 1.0 (66.8) mg/L; the “C max,norm, geometric mean (% CV)” value is 0.2 (70.2) kg/L. For the same molecule, in data set [1] (Day 1 of cycle 2), the “C trough, geometric mean (% CV)” value is 0.8 (81.1) mg/L; the “C trough,norm, geometric mean (% CV)” value is listed as 0.1 (85.9) kg/L; the “t max, median (range)” value is 1.00 (0–12.00) h. Besides, in data set [1] (Day 1 of cycle 5), the “AUC, geometric mean (% CV)” value is 5.2 (98.7) mg h/L; the “AUCnorm, geometric mean (% CV)” value is given as 0.9 (103.2) kg h/L; the “C max, geometric mean (% CV)” value is listed as 0.6 (96.9) mg/L; the “C max,norm, geometric mean (% CV)” value is reported as 0.1 (100.7) kg/L. In data set [1] (Day 1 of cycle 5), the “C trough, geometric mean (% CV)” value is 0.5 (109.4) mg/L; the “C trough,norm, geometric mean (% CV)” value is on record as 0.1 (111.5) kg/L; the “t max, median (range)” value was 2.00 (0–8.12) h. Further, in data set [1], the “AUC ratio (90% CI)” value was 0.61 (0.41–0.92), the “C max ratio (90% CI)” value was 0.58 (0.41–0.82) and the “C trough ratio (90% CI)” value is reported as 0.54 (0.36–0.81).
For `NC(=O)c1cc(Oc2ccc(NC(=O)Nc3ccc(Cl)c(C(F)(F)F)c3)cc2)cc[n+]1[O-]` [BAY 68-7769], in data set [1] (Day 1 of cycle 2), the “AUC, geometric mean (% CV)” value is recorded as 2.8 (92.3) mg h/L; the “AUCnorm, geometric mean (% CV)” value is 0.5 (91.4) kg h/L; the “C max, geometric mean (% CV)” value was 0.3 (101.6) mg/L; the “C max,norm, geometric mean (% CV)” value is recorded as 0.1 (99.6) kg/L. In addition, in data set [1] (Day 1 of cycle 2), the “C trough, geometric mean (% CV)” value was 0.3 (114.5) mg/L; the “C trough,norm, geometric mean (% CV)” value was 0.1 (113.5) kg/L; the “t max, median (range)” value was 2.00 (0–12.00) h. Further, in data set [1] (Day 1 of cycle 5), the “AUC, geometric mean (% CV)” value is listed as 1.4 (129.3) mg h/L; the “AUCnorm, geometric mean (% CV)” value is reported as 0.3 (128.1) kg h/L; the “C max, geometric mean (% CV)” value is 0.2 (127.2) mg/L; the “C max,norm, geometric mean (% CV)” value is recorded as <0.1 (123.6) kg/L. Further, in data set [1] (Day 1 of cycle 5), the “C trough, geometric mean (% CV)” value is 0.1 (127.8) mg/L; the “C trough,norm, geometric mean (% CV)” value was <0.1 (124.7) kg/L; the “t max, median (range)” value is reported as 2.00 (0–8.05) h. Further, in data set [1], the “AUC ratio (90% CI)” value is 0.50 (0.28–0.89), the “C max ratio (90% CI)” value is listed as 0.47 (0.28–0.80) and the “C trough ratio (90% CI)” value was 0.49 (0.29–0.83).
For `COc1c(N2C[C@@H]3CCCN[C@@H]3C2)c(F)cc2c(=O)c(C(=O)O)cn(C3CC3)c12` [Moxifloxacin], in data set [2], the “Mean (SD) change from baseline in QT” value is on record as 5.7 (24.3) ms, the “Mean (SD) change from baseline in QTcB” value is listed as 4.4 (12.9) ms and the “Mean (SD) change from baseline in QTcF” value was 4.9 (13.7) ms. Further, the “Increase in QT/QTc interval” value in data set [3] is 5 to 10 ms.
`CCN(CC)CCNC(=O)c1c(C)[nH]c(/C=C2\C(=O)Nc3ccc(F)cc32)c1C` [sunitinib]: the “Patients with declines to <50 LVEF(%)” value is given as 12% in data set [4] (after 1 cycle (6 weeks)), 10% in data set [4] (after 1 year) and 5% in data set [4] (after 2 years). Besides, the “Mean change in LVEF(%)” value in data set [4] (after 2 cycles) is −2.2 LVEF(%); in data set [4] (after 4 cycles), −5.1 LVEF(%). Moreover, the “Incidence of ≥10 LVEF(%) reduction” value in data set [4] (observational study by Schmidinger et al.) is 14%.
